ChEMBL document CHEMBL1146902, “Antifungal anthraquinones from Saprosma fragrans” (2006)
Values after ≈ are worked out from the molar mass of the structure shown.

What was measured:
Candida albicans = experiment: Antifungal activity against Candida albicans; assay type: functional
Cryptococcus neoformans = experiment: Antifungal activity against Cryptococcus neoformans; assay type: functional
Sporothrix schenckii = experiment: Antifungal activity against Sporothrix schenckii; assay type: functional
Trichophyton benhamiae = experiment: Antifungal activity against Trichophyton mentagrophytes; assay type: functional, Arthroderma benhamiae
Aspergillus fumigatus = experiment: Antifungal activity against Aspergillus fumigatus; assay type: functional

Row | SMILES | MIC (Candida albicans) [µg/mL] | MIC (Cryptococcus neoformans) [µg/mL] | MIC (Sporothrix schenckii) [µg/mL] | MIC (Trichophyton benhamiae) [µg/mL] | MIC (Aspergillus fumigatus) [µg/mL]
1 | COc1c(C=O)c(O)c(O)c2c1C(=O)c1ccccc1C2=O | 50 (≈ 168 µM) | 50 (≈ 168 µM) | 25 (≈ 83.8 µM) | 12.5 (≈ 41.9 µM) | > 100
2 | Clc1ccccc1C(c1ccccc1)(c1ccccc1)n1ccnc1 [CLOTRIMAZOLE] | 3.1 (≈ 8.99 µM) | 0.09 (≈ 0.261 µM) | 1.56 (≈ 4.52 µM) | 0.39 (≈ 1.13 µM) | 1.56 (≈ 4.52 µM)
3 | COc1c(C=O)c(O)cc2c1C(=O)c1ccccc1C2=O [DAMNACANTHAL] | 50 (≈ 177 µM) | 12.5 (≈ 44.3 µM) | 6.25 (≈ 22.1 µM) | 1.56 (≈ 5.53 µM) | 50 (≈ 177 µM)
